Experiments:
[1] = tested on: Renca renal cell carcinoma cells; assay: qRT-PCR, combination with ADU-S100, Renca cells; type: cell-based, Mouse; conditions: for IFNB1 mRNA expression: 2 μM Compound 1, 10 μM ADU-S100, 4 h; for CCL5 mRNA expression / CXCL10 mRNA expression: 2 μM Compound 1, 10 μM ADU-S100, 24 h; for increase in IFNB1, CCL5 and CXCL10 with siRNA knockdown of STING: siSTING
Protocol: Renca cells were grown in RPMI-1640 medium containing 10% fetal bovine serum. Cells were then incubated for 2 days at 37 degrees Celsius, 5% CO2, and 95% humidity. Renca cells were reversely transfected with scrambled siRNA control (siSCR) or siRNA targeting STING (siSTING). After transfection for 48 h, cells were treated with DMSO control, 2 μM Compound 1 or 2 μM Compound 2 in combination with 10 μM ADU-S100 for 4 h (for Ifnb1) or 24 h (Ccl5 and Cxcl10). Cells were washed with PBS and RNA was isolated using the PureLink RNA kit (#12183018A, Thermo Fisher Scientific) according to the manufacturer's protocol. Genomic DNA was removed using DNA-binding columns (RNeasy plus kit, #74134, Qiagen) and/or DNase treatment (#12185010, Thermo Fisher Scientific). RNA was quantified using NanoDrop (Thermo Fisher Scientific) and 50 ng/μL RNA was used for cDNA synthesis with SuperScript IV VILO Master Mix (#11756050, Thermo Fisher Scientific). Quantitative RT-PCR (qRT-PCR) was run with diluted cDNA (1:25 or 1:12.5), PowerUp SYBR Green Master Mix (#A25741, Thermo Fisher Scientific), and 200 nM primers (see below) on a CFX Connect RT-PCR system (BioRad). Data was analyzed using the ΔΔCT method. Results are mean±SEM of three independent experiments.

[2] = tested on: Renca renal cell carcinoma cells; assay: IncuCyte live-cell imaging, Caspase 3/7 activity, Renca cells; type: cell-based; conditions: 2 μM Compound 1, ADU-S100, 24 hours
Protocol: Renca cells were treated with a combination of DMSO or 2 μM Compound 1 alone or in combination with STING agonist ADU-S100 for 24 hours. Treatment with 1 μM staurosporine was used as a positive control for apoptosis induction. To assess cell proliferation, 1000 cells/well were plated in 96-well plates. After 24 h, cells were treated with compounds in 100 μL complete medium. Phase-contrast images (10×) were acquired every 3 h for 24-72 h and cell confluence (%) was calculated using the IncuCyte S3 live-cell analysis system (Sartorius). For monitoring apoptosis, 5 μM of IncuCyte Caspase-3/7 Green Dye (#4440, Sartorius) was added to the medium at the time of treatment. Both phase-contrast and green fluorescent images were captured. Caspase 3/7 induction was calculated by counting green fluorescent objects per mm^2 and dividing it by the percentage of cell confluency.

[3] = tested on: 786-O renal cell carcinoma cells; assay: Cytokine secretion assay (MSD) with siRNA knockdown, 786-O cells; type: cell-based, human; conditions: 24 h; for CCL5 and CXCL10 secretion with siRNA knockdown of CGAS: siCGAS; for CCL5 and CXCL10 secretion with siRNA knockdown of CGAS / increase in CCL5 protein secretion / increase in CXCL10 protein secretion / CCL5 and CXCL10 protein secretion with siRNA knockdown of STING: 2 μM; for CCL5 and CXCL10 secretion with siRNA knockdown of CGAS / CCL5 and CXCL10 protein secretion with siRNA knockdown of STING / secretion of CCL5 or CXCL10 with siRNA knockdown of TBK1: vs compound alone; for increase in CCL5 protein secretion / increase in CXCL10 protein secretion: siRNA against non-specific controls (siSCR); for CCL5 and CXCL10 protein secretion with siRNA knockdown of STING: siSTING; for secretion of CCL5 or CXCL10 with siRNA knockdown of TBK1: siTBK1, 2 μM
Protocol: 786-O cells were transfected with scrambled siRNA control (siSCR) or siRNA targeting TBK1 (siTBK1), STING (siSTING) or CGAS (siCGAS). After 48 h cells were treated with DMSO or 2 μM of VPS34 inhibitor (Compound 1 or Compound 2) for 24 h. Cell culture medium was centrifuged at 1600 rpm for 10 min at 4° C. and obtained supernatant stored at −80° C. Cytokine levels were quantified using following Meso Scale Discovery (MSD) assays: human R-PLEX RANTES/CCL5 (#F21ZN), U-PLEX CXCL10/IP-10 (#K151UFK). Assays were run on the SECTOR Quickplex Imager and analyzed using Discovery Workbench version 4.0 (MSD).

YUMM 1.7 melanoma cells = assay: Cytokine secretion assay, combination with cGAMP, YUMM1.7 cells; type: cell-based, mouse; conditions: 24 hours, 5 μM Compound 1 or 10 μM Compound 2, 10 mg/ml cGAMP
Protocol: YUMM1.7 cells were treated for 24 hours with DMSO or VPS34 inhibitors (5 μM Compound 1 or 10 μM Compound 2) in combination with 10 mg/ml STING agonist cGAMP (green bars). Cells were washed with PBS and RNA was isolated using the PureLink RNA kit (#12183018A, Thermo Fisher Scientific) according to the manufacturer's protocol. Genomic DNA was removed using DNA-binding columns (RNeasy plus kit, #74134, Qiagen) and/or DNase treatment (#12185010, Thermo Fisher Scientific). RNA was quantified using NanoDrop (Thermo Fisher Scientific) and 50 ng/μL RNA was used for cDNA synthesis with SuperScript IV VILO Master Mix (#11756050, Thermo Fisher Scientific). Quantitative RT-PCR (qRT-PCR) was run with diluted cDNA (1:25 or 1:12.5), PowerUp SYBR Green Master Mix (#A25741, Thermo Fisher Scientific), and 200 nM primers (see below) on a CFX Connect RT-PCR system (BioRad). Data was analyzed using the ΔΔCT method. Results are mean±SEM of three independent experiments.
Cell culture medium was centrifuged at 1600 rpm for 10 min at 4° C. and obtained supernatant stored at −80° C. Cytokine levels were quantified using following Meso Scale Discovery (MSD) assays: mouse U-PLEX RANTES/CCL5 (#K152A2K) and U-PLEX IP-10/CXCL10 (#K152UFK). Assays were run on the SECTOR Quickplex Imager and analyzed using Discovery Workbench version 4.0 (MSD).

[4] = tested on: 786-O renal cell carcinoma cells; assay: qRT-PCR with siRNA knockdown of STING pathway genes, 786-O cells; type: cell-based, Human; conditions: 24 h, vs compound alone; for IFNB1, CCL5 and CXCL10 expression with siRNA knockdown of CGAS / IRF7 expression with siRNA knockdown of CGAS: siCGAS; for IFNB1, CCL5 and CXCL10 expression with siRNA knockdown of CGAS / IRF7 expression with siRNA knockdown of CGAS / IFNB1, CCL5 and CXCL10 expression with siRNA knockdown of STING / IRF7 expression with siRNA knockdown of STING: 2 μM; for IFNB1, CCL5 and CXCL10 expression with siRNA knockdown of STING / IRF7 expression with siRNA knockdown of STING: siSTING; for IFNB1 expression with siRNA knockdown of TBK1 / IRF7, CCL5 and CXCL10 expression with siRNA knockdown of TBK1: siTBK1, 2 μM

SMILES	IFNB1 mRNA expression [1]	CCL5 mRNA expression [1]	CXCL10 mRNA expression [1]	increase in IFNB1, CCL5 and CXCL10 with siRNA knockdown of STING [1]	Caspase 3/7 activity [2]	CCL5 and CXCL10 secretion with siRNA knockdown of CGAS [3]	increase in CCL5 protein secretion [3] [fold]	increase in CXCL10 protein secretion [3] [fold]	CCL5 and CXCL10 protein secretion with siRNA knockdown of STING [3]	secretion of CCL5 or CXCL10 with siRNA knockdown of TBK1 [3]	CCL5 protein secretion (YUMM 1.7 melanoma cells)	CXCL10 protein secretion (YUMM 1.7 melanoma cells)	IFNB1, CCL5 and CXCL10 expression with siRNA knockdown of CGAS [4]	IRF7 expression with siRNA knockdown of CGAS [4]	IFNB1, CCL5 and CXCL10 expression with siRNA knockdown of STING [4]	IRF7 expression with siRNA knockdown of STING [4]	IFNB1 expression with siRNA knockdown of TBK1 [4]	IRF7, CCL5 and CXCL10 expression with siRNA knockdown of TBK1 [4]
Nc1ncnc2c1ncn2[C@@H]1O[C@@H]2COP(=O)([S-])O[C@@H]3[C@H](O)[C@@H](COP([O-])(=S)O[C@H]2[C@H]1O)O[C@H]3n1cnc2c(N)ncnc21.[Na+].[Na+] (stereo partly drawn) [ADU-S100, reference compound]	increased	increased	increased	blocked	mild effects													
C[C@@H]1COCCN1c1cc(N2CCCC[C@@H]2C(F)(F)F)[nH]c(=O)c1 [Compound 1, 4-((R)-3-methylmorpholino)-6-((R)-2-(trifluoromethyl)piperidin-1-yl)pyridin-2(1H)-one]	did not significantly increase	did increase	did increase	blocked	increased	near complete ablation	~2	~2	near complete ablation	decreased secretion	increased	increased	complete ablation	significant decreases	complete ablation	significant decreases	near complete ablation	modest decreases
C[C@@H]1COCCN1c1cc(=O)n2c(n1)N(Cc1cncc(Cl)c1)[C@H](C(F)(F)F)CC2 [Compound 2, (S)-9-((5-chloropyridin-3-yl)methyl)-2-((R)-3-methylmorpholino)-8-(trifluoromethyl)-6,7,8,9-tetrahydro-4H-pyrimido[1,2-a]pyrimidin-4-one]						near complete ablation	~2	~2	near complete ablation	decreased secretion	increased	increased	complete ablation	significant decreases	complete ablation	significant decreases	near complete ablation	modest decreases
